Data published in US20150118222A1, “TREATMENT USING BRUTON'S TYROSINE KINASE INHIBITORS AND IMMUNOTHERAPY” (Pharmacyclics, Inc., priority 2013, published 2015).
Where two headings read alike, the source gives them in different places.

What was measured:
A20 = assay: IC50 of ibrutinib in A20 mouse lymphoma cells (FIG. 19B); format: cell-based; settings: read-out: IC50 of ibrutinib, FIG. 19 Panel B
CT26 cells [1] = assay: CT26 colon cancer mouse model (Example 8); format: in vivo, BALB/c mice; settings: CT26 colon carcinoma line
4T1-Luc cells = settings: 4T1, model of triple negative breast cancer
CT26 cells [2] = system: CT26 cells

SMILES: C=CC(=O)N1CCC[C@@H](n2nc(-c3ccc(Oc4ccccc4)cc3)c3c(N)ncnc32)C1 [ibrutinib, 1-((R)-3-(4-amino-3-(4-phenoxyphenyl)-1H-pyrazolo[3,4-d]pyrimidin-1-yl)piperidin-1-yl)prop-2-en-1-one]
- IC50 (A20): > 10 µM
- sensitivity of the CT26 cell line to ibrutinib (CT26 cells [1]): not sensitive
- sensitivity of the 4T1 cell line to ibrutinib (4T1-Luc cells): not sensitive
- sensitivity of the CT26 cell line to ibrutinib (CT26 cells [2]): not sensitive
